From patent US20150175655A1 (priority 2012, published 2015)

Legend:
Format in all cases: cell-based
[1] = system: genotype 4a stable HCV replicon (ED43 strain) in Huh-7-derived cells; experiment: Stable subgenomic HCV replicon EC50, genotype 4a (Renilla luciferase); conditions: Hepatitis C virus, 72 h, read-out: EC50 4A RLUC
Description: (§1) Antiviral potency (EC50) was determined in both stable subgenomic HCV replicon cell lines and transient-transfected HCV replicon cells. The term half maximal effective concentration (EC50) refers to the concentration of a drug which induces a response halfway between the baseline and maximum after the exposure time specified below.
(§2) Stable subgenomic HCV replicons for genotype 1a, 1 b, 2a, 3a, and 4a were established in Huh-7-derived cells as described by Lohmann et al (Lohmann V, Korner F, Koch J, et al Replication of subgenomic hepatitis C virus RNAs in a hepatoma cell line. Science 1999; 285:119-3). Each stable cell line contains a bicistronic HCV replicon that encodes a humanized Renilla luciferase (hRLuc) reporter gene fused to a selectable neomycin-resistance gene, followed by an EMCV IRES and the NS3-NS5B coding region of HCV. […] Luciferase activity was measured as a marker for intracellular HCV replication levels.
(§3) The genotype 1a stable replicon was derived from the H77 HCV strain and contained adaptive mutations P1496L and S2204I. The genotype 1 b stable replicon was derived from the Cont HCV strain and contained adaptive mutations E1202G, T1280I, and K1846T. […] The genotype 3a stable replicon was derived from the S52 HCV strain and contained adaptive mutations P1121 L, A1198T and S2210I (equivalent to S2204I in genotype 1). The genotype 4a stable replicon was derived from the ED43 HCV strain and contained adaptive mutations Q1691R and S2204I. All replicon cell lines were propagated in Huh-7-derived cells and maintained in Dulbecco's modified Eagle's Medium (DMEM) supplemented with 10% fetal bovine serum (FBS) and 0.5 mg/mL G418.
(§4) To perform EC50 assays, cells from each HCV replicon were dispensed into 384-well plates. Compounds were dissolved in DMSO at a concentration of 10 mM and diluted in DMSO using an automated pipetting instrument. Three-fold serially diluted compounds were directly added to the cells using an automated instrument. […] Seventy-two hours later, cells were lysed and Renilla luciferase activity were quantified as recommended by the manufacturer (Promega-Madison, Wis.). Non-linear regression was performed to calculate EC50 values.

[2] = system: genotype 1b (Con1) wild-type transient HCV replicon in Huh-7-derived cells; experiment: Transient-transfected HCV replicon EC50, genotype 1b wild type; conditions: Hepatitis C virus; transient-transfected replicon genotype 1b wild type, 72 h; read-out: EC50 1B WT
[3] = system: genotype 1a stable HCV replicon (H77 strain) in Huh-7-derived cells; experiment: Stable subgenomic HCV replicon EC50, genotype 1a (Renilla luciferase); conditions: Hepatitis C virus, stable replicon genotype 1a, 72 h, read-out: EC50 1A RLUC
Description: as §1, §2, §3, §4

[4] = system: genotype 1b transient HCV replicon, NS3/4a protease inhibitor resistant variant D168A, in Huh-7-derived cells; experiment: Transient-transfected HCV replicon EC50, genotype 1b D168A; conditions: Hepatitis C virus, 72 h, read-out: EC50 1B D168A
[5] = system: genotype 1a (H77) wild-type transient HCV replicon in Huh-7-derived cells; experiment: Transient-transfected HCV replicon EC50, genotype 1a wild type; conditions: Hepatitis C virus; transient-transfected replicon genotype 1a wild type, 72 h; read-out: EC50 1A WT

Row | Compound | EC50 [1] | EC50 [2] | EC50 [3] | EC50 [4] | EC50 [5]
1 | CC[C@@H]1[C@@H]2CN(C(=O)[C@H](C(C)(C)C)NC(=O)O[C@@H]3C[C@H]3CC/C=C/C(F)(F)C3Nc4ccc(C#N)cc4N=C3O2)[C@@H]1C(=O)N[C@]1(C(=O)NS(=O)(=O)C2(C)CC2)C[C@H]1C(F)F (stereo partly drawn) [Example 78, (1aR,5S,8S,9S,10R,19E,22aR)-5-tert-butyl-14-cyano-N-[(1R,2R)-2-(difluoromethyl)-1-{[(1-methylcyclopropyl)sulfonyl]carbamoyl}cyclopropyl]-9-ethyl-18,18-difluoro-3,6-dioxo-1,1a,3,4,5,6,9,10,17,17a,18,21,22,22a-tetradecahydro-8H-7,10-methanocyclopropa[18,19][1,10,3,6]dioxadiazacyclononadecino[11,12-b]quinoxaline-8-carboxamide] | 225 nM | 156 nM | 267 nM | 248 nM | 189 nM
2 | C[C@@H]1[C@@H]2CN(C(=O)[C@H](C(C)(C)C)NC(=O)O[C@@H]3C[C@H]3CCCCC(F)(F)c3nc4ccc(Cl)cc4nc3O2)[C@@H]1C(=O)N[C@]1(C(=O)NS(=O)(=O)C2(C)CC2)C[C@H]1C(F)F [Example 88, (1aR,5S,8S,9S,10R,22aR)-5-tert-butyl-14-chloro-N-[(1R,2R)-2-(difluoromethyl)-1-{[(1-methylcyclopropyl)sulfonyl]carbamoyl}cyclopropyl]-18,18-difluoro-9-methyl-3,6-dioxo-1,1a,3,4,5,6,9,10,18,19,20,21,22,22a-tetradecahydro-8H-7,10-methanocyclopropa[18,19][1,10,3,6]dioxadiazacyclononadecino[11,12-b]quinoxaline-8-carboxamide] | 4.1 nM | 5.5 nM | 9.3 nM | 24 nM | 5 nM
3 | CC[C@@H]1[C@@H]2CN(C(=O)[C@H](C(C)(C)C)NC(=O)O[C@]3(C)CCC[C@H]3CCCCCc3nc4ccc(OC)cc4nc3O2)[C@@H]1C(=O)N[C@]1(C(=O)NS(=O)(=O)C2(C)CC2)C[C@H]1CC(F)F [Example 41, (3aR,7S,10S,11S,12R,24aR)-7-tert-butyl-N-[(1R,2S)-2-(2,2-difluoroethyl)-1-{[(1-methylcyclopropyl)sulfonyl]carbamoyl}cyclopropyl]-11-ethyl-16-methoxy-3a-methyl-5,8-dioxo-1,2,3,3a,5,6,7,8,11,12,20,21,22,23,24,24a-hexadecahydro-10H-9,12-methanocyclopenta[18,19][1,10,3,6]dioxadiazacyclononadecino[11,12-b]quinoxaline-10-carboxamide] |  | 154 nM | 135 nM |  | 164 nM
4 | COc1ccc2nc3c(nc2c1)O[C@H]1CN(C(=O)[C@H](C(C)(C)C)NC(=O)O[C@@H]2C[C@H]2CCCCC3F)[C@H](C(=O)N[C@]2(C(=O)NS(=O)(=O)C3(C)CC3)C[C@H]2C(F)F)[C@@H]1C (stereo partly drawn) [Example 47, (1aR,5S,8S,9S,10R,22aR)-5-tert-butyl-N-[(1R,2R)-2-(difluoromethyl)-1-{[(1-methylcyclopropyl)sulfonyl]carbamoyl}cyclopropyl]-18-fluoro-14-methoxy-9-methyl-3,6-dioxo-1,1a,3,4,5,6,9,10,18,19,20,21,22,22a-tetradecahydro-8H-7,10-methanocyclopropa[18,19][1,10,3,6]dioxadiazacyclononadecino[11,12-b]quinoxaline-8-carboxamide] | 4.2 nM | 2 nM | 3.8 nM | 12 nM | 5.4 nM
